# System: PDX TNBC Model MAXF 857
# Experiment: Antitumor effects in PDX mouse model of TNBC
# Type: in vivo
# Conditions: PDX model MAXF 857; A 10 mg/kg SC BID 3 days on/4 off ×4; B 7.5 mg/kg PO BID×28; versus vehicle
# Procedure, shortened: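 Combination interaction was judged by the Bliss method, comparing observed relative volume against YExp=(Y1*Y2)/YV with additivity limits. Relative volumes were taken at last dosing day or ≥14 days after baseline. Dosing: 10 mg/kg SC BID intermittent CHK1 inhibitor, 7.5 mg/kg PO BID PI3K/mTOR inhibitor.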
row,SMILES,% Rsp. (% ΔT/ΔC or % Regression)
1,"CO[C@@H](C)Cn1c(=O)n(C)c2cnc3ccc(-c4cncc(C(C)(C)O)c4)cc3c21 [Compound B, 8-[5-(1-hydroxy-1-methylethyl)pyridin-3-yl]-1-[(2S)-2-methoxypropyl]-3-methyl-1,3-dihydro-2H-imidazo[4,5-c]quinolin-2-one]",72.7%
2,"COc1cccc(OCCCN)c1-c1cc(Nc2cnc(C#N)cn2)n[nH]1.CS(=O)(=O)O [Compound A, 5-(5-(2-(3-aminopropoxy)-6-methoxyphenyl)-1H-pyrazol-3-ylamino)pyrazine-2-carbonitrile methanesulfonate hydrate]",32.4%

# Source: patent US20180228795A1, “COMBINATION THERAPY FOR CANCER” (Eli Lilly and Company, priority 2015, published 2018)
